Measurements taken from patent US20080103201A1, “Novel alpha-Glucosidase inhibitor from Tabernaemontana dichotoma” (priority 2006, published 2008).

Tests used:
[1] = target: α-glucosidase (E.C.3.2.1.20); test: α-Glucosidase enzyme inhibition assay (PNP-G substrate, spectrophotometric); format: biochemical
Procedure: α-Glucosidase (E.C.3.2.1.20) enzyme inhibition assay was performed according to the slightly modified method of Matsui et al. α-glucosidase (E.C.3.2.1.20) from Saccharomyces species, purchased from Wako Pure Chemical Industries Ltd. (Wako 076-02841). The enzyme inhibition was measured spectrophotometrically at pH 6.9 and at 37° C. using 0.7 mM p-nitrophenyl-α-D-glucopyranoside (PNP-G) as a substrate and 500 m units/mL enzyme, in 50 mM sodium phosphate buffer containing 100 mM NaCl. […] The increment in absorption at 400 nm, due to the hydrolysis of PNP-G by α-glucosidase, was monitored continuously on microplate spectrophotometer (Spectra Max Molecular Devices, USA).) [T. Matsui, C. Yoshimoto, K. Osajima, T. Oki, and Y. Osajima. Biosci. Biotech. Biochem., 1996, 60, 2019].

[2] = Post-prandial blood glucose concentration in rats; format: in vivo

IC50 ([1]; pH 6.9, 37° C., 0.7 mM PNP-G substrate, 500 m units/mL enzyme): 22.27 ± 0.112 µM
potency compared with Acarbose (times) ([1]; α-glucosidase inhibition, relative to acarbose): approximately 35 times
SMILES: CC(=O)OC1CCC2(C)C(CCC3(C)C2CC=C2C4CC(C)(C)CCC4(C)CCC23C)C1(C)C (stereo not drawn) [β-Amyrin acetate, 12-Oleanen-3-yl acetate]
post-prandial blood glucose concentration [2]: reduced
